US8461082B2, “Herbicidal composition and method for removing unwanted foliage” (priority 2006, dated 2013)

Columns and labels:
[1] = Examples 4-6 mixing in 1000 L commercial spray tank, dissolution and pH; type: physicochemical
Text: A commercial “Silvan” Trailing Boom Spray fitted with a 1000 L tank was used for this experiment. The boom was 10 m wide.
The glyphosate material used was glyphosate acid (purity 95%) with a particle size where 95% can pass through a 1.2 mm sieve.
The spray tank was filled with 900 L of water. The recirculation or agitation system was driven by a power take off (“PTO”) from the tractor. The recirculation system consisted of a wet boom, submerged at the base of the tank with outlets to one side of the tank's midline. […] This is acceptable agitation by commercial spray boom standards.
With the PTO operating, a blend made from 0.979 kg of the surfactant Empigen BB and 1.57 kg of the monoethanolamine was poured into the tank and allowed to disperse for one minute.
4.26 kg of glyphosate acid was then tipped into the water.
A commercial “Silvan” brand Trailing Boom Spray fitted with a 1000 L tank was use for this experiment. The boom was 10 m wide.
Glyphosate acid (purity 95%) with a particle size where 95% can pass through a 0.5 mm sieve.
The spray tank was filled with 900 L of water. The recirculation or agitation system was driven by a PTO from the tractor. The recirculation system consisted of a wet boom at the base of the tank with outlets to one side of the tank's midline. […] This is adequate agitation by commercial spray boom standards.
4.26 kg of the milled glyphosate acid was tipped into the water.
A commercial “Silvan” Trailing Boom Spray fitted with a 1000 L tank was use for this experiment. The boom was 10 m wide.
Glyphosate acid (purity 95%) with a particle size where 95% can pass through a 1.2 mm sieve but not through a 0.5 mm sieve.
A blend made from 0.979 kg of the surfactant Empigen BB, a cocobetaine surfactant, and 1.57 kg of the monoethanolamine (MEA) was poured into the tank and allowed to disperse for one minute. A sample of water was collected and analysed for pH.
A plastic mesh insert with holes of 3-4 mm diameter was fitted into the mouth of the tank and 4.26 kg of glyphosate acid was tipped into the insert. […]
A sample of water was then taken and analysed for pH.

[2] = Dissolution of glyphosate acid on stirring into diluted Alkali Surfactant Blend in 20 L buckets; type: physicochemical; conditions: bucket, at the higher concentrations
Protocol: Approximately 13 L of water was added to each of five 20 litre (“L”) plastic buckets (Table 1). Pack 1 was made by taking 37.5 parts monoethanolamine (“MEA”) and 25.3 parts of a cocobetaine surfactant called Empigen BB from Huntsman Chemical Company Australia. Pack 1 was also called the Alkaline-Surfactant Blend in this and later examples.
Glyphosate acid technical material with a purity of 95% and a particle size smaller than 1 mm (Pack 2) was then added to the buckets at the rates given in Table 1 and stirred with a plastic paddle until all the acid disappeared. This took 3-5 minutes at the higher concentrations.
Approximately 13 L of water was added to seven 20 L plastic buckets (Table 5). A blend of 37.5 parts MEA and 25.3 parts of the cocobetain surfactant Empigen BB was made to form the Alkali Surfactant Blend (Pack 1). Glyphosate acid (Pack 2) with a purity of 95% was then added to the buckets at the rates given in Table 5 and stirred with a plastic paddle until all the acid disappeared. This took 3-5 minutes at the higher concentrations.
Approximately 13 L of water was added to seven 20 L plastic buckets (Table 22). The Alkali Surfactant Blend of monoethanolamine and the cocamidopropyl betaine (Pack 1) was then added to the water at the rates given in the Table. […]

SMILES: O=C(O)CNCP(=O)(O)O [glyphosate acid, N-phosphonomethyl glycine]
- dissolution of glyphosate acid in spray tank ([1]; Example 4: 4.26 kg acid (95% passes 1.2 mm sieve) tipped into 900 L water with MEA/Empigen BB blend, agitated, no mesh insert): almost all disappeared over the next 5 minutes
- time for glyphosate acid to disappear in spray tank ([1]; Example 5: 4.26 kg milled acid (95% passes 0.5 mm sieve) tipped into 900 L water with MEA/Empigen BB blend, agitated, no mesh insert): ≤ 10 min
- undissolved acid in spray tank after washing through mesh ([1]; Example 6: 4.26 kg acid washed through 3-4 mm plastic mesh insert over 1-2 minutes into 900 L water with MEA/Empigen BB blend): no evidence of undissolved acid
- time stirred until all the acid disappeared ([2]; about 13 L water with MEA/Empigen BB blend): 3 to 5 min
- time stirred until all the acid disappeared ([2]; about 13 L water with MEA/cocamidopropyl betaine blend): approximately 3 minutes
